pIC50: −log10 of the molar value. Structures can show the parent of a compound that is named as a salt.

The values below come from ChEMBL document CHEMBL4495565, “Cytopathic SARS-Cov2 screening on VERO-E6 cells in a large repurposing effort” (2020).

A short description of data set [1]: in vitro. The following applies: chlorocebus sabaeus, VERO-E6 cells, Selectivity index.
The next data set relates to SARS-CoV-2. Nature of the data set: microbe, parasite or virus in culture. The format is functional, organism-based, Chlorocebus sabaeus, Vero C1008. The following applies: Severe acute respiratory syndrome coronavirus 2, Vero C1008, 48 h.
The nature of data set [2]: in vitro. The conditions noted are these: chlorocebus sabaeus, VERO-E6 cells (Vero C1008), uninfected, CC50.

Consider `N#Cc1cc2c(OCC(O)CN3CCN(C(c4ccccc4)c4ccccc4)CC3)cccc2[nH]1` (racemic; form 1), for which the selectivity ratio in “in vitro [1]” was determined as 0.49. The compound also gave a pIC50 in the data set on SARS-CoV-2 of 4.59. The same compound returned a CC50 at 48 h in the data set “in vitro [2]” of 12.7 µM.
On to `COC(=O)C[C@@](O)(CCC(C)(C)O)C(=O)O[C@@H]1C(OC)=C[C@]23CCCN2CCc2cc4c(cc2[C@@H]13)OCO4`, for which the selectivity ratio in “in vitro [1]” came out at 2.46. The compound also showed a pIC50 in the data set with SARS-CoV-2 of 6.10. The compound further had a half-maximal cytotoxic concentration (CC50) at 48 h in “in vitro [2]” of 1.94 µM.
In the case of `Nc1c(C(=O)NCc2ccco2)c2nc3ccccc3nc2n1CCN1CCCCC1`, the pIC50 with SARS-CoV-2 was 4.51. The CC50 at 48 h in “in vitro [2]” is greater than 33 µM.
Take `CCCCCCCCCCCCCCOc1ccc(C(=O)O)o1` [TOFA]: the pIC50 with SARS-CoV-2 is 5.39. The same compound registered a CC50 at 48 h in the data set “in vitro [2]” greater than 33 µM.
Taken in the same sequence, the figures for `O=C(c1ccc(OCCN2CCCCC2)cc1)c1c(-c2ccc(O)cc2)sc2cc(O)ccc12` [RALOXIFENE HYDROCHLORIDE] were 4.81 and greater than 33 µM.
On to `COc1cc(C[C@H]2c3cc(OC)c(OC)cc3CCN2C)c(Oc2cc3c(cc2OC)-c2c(OC)c(OC)cc4c2[C@H](C3)N(C)CC4)cc1OC` [THALICARPINE], for which the selectivity ratio in the data set “in vitro [1]” turned out to be 8.53. The compound further showed a pIC50 with SARS-CoV-2 of 5.41. Besides, the CC50 at 48 h in the data set “in vitro [2]” was greater than 33 µM.
In the data set with SARS-CoV-2, `CN(Cc1cnc2nc(N)nc(N)c2n1)c1ccc(C(=O)N[C@@H](CCC(=O)O)C(=O)O)cc1` [METHOTREXATE] showed a pIC50 of 7.30. This compound came in with a CC50 at 48 h in the data set “in vitro [2]” of 0.05 µM.
Consider `CCN(CC)Cc1cc(Nc2ccnc3cc(Cl)ccc23)ccc1O` [AMODIAQUINE], for which the selectivity ratio in “in vitro [1]” turned out to be 4.12. The same compound had a pIC50 with SARS-CoV-2 of 5.39. Further, the CC50 at 48 h in “in vitro [2]” amounted to 16.8 µM.
In turn, `Cc1c(C(=O)c2cccc3ccccc23)c2cccc3c2n1[C@H](CN1CCOCC1)CO3` [WIN-552122] had a pIC50 in the data set with SARS-CoV-2 of less than 4.48. This compound had a CC50 at 48 h in “in vitro [2]” of 7.06 µM.
Taken in the same sequence, the figures for `CC(C)n1cnc2c(NCCc3ccc(O)cc3)nc(-c3csc4ccccc34)nc21` were less than 4.48 and 12.6 µM.
The matching figures for `c1ccc(-c2ccc(CNc3nc(-c4ccccn4)nnc3-c3ccccc3)cc2)cc1`: 4.50 and 0.02 µM.
Taken in the same sequence, the figures for `CCN(CC)c1ccc2cc(-c3nc4ccccc4[nH]3)c(=O)oc2c1` were 6.44 and greater than 33 µM.
For `CN1[C@@H]2CC[C@H]1C[C@@H](OC(=O)c1cc(Cl)cc(Cl)c1)C2` [BEMESETRON], the pIC50 in the data set with SARS-CoV-2 is less than 4.48. Besides, the CC50 at 48 h in the data set “in vitro [2]” amounted to 0.02 µM.
Take `Cc1cc(N2C[C@@H](C)N[C@@H](C)C2)ncc1-c1ccc(-c2nc3c(ccn3C)c(=O)[nH]2)cc1`: the pIC50 in the data set on SARS-CoV-2 was less than 4.48. In “in vitro [2]”, this compound registered a CC50 at 48 h of 7.14 µM.
Taken in the same sequence, the figures for `CC(=O)[C@]1(N)Cc2c(O)c3c(c(O)c2[C@@H](O[C@H]2C[C@H](O)[C@H](O)CO2)C1)C(=O)c1ccccc1C3=O` [AMRUBICIN] were 6.48 and greater than 33 µM.
In the case of `C/C=C/C[C@@H](C)C(=O)[C@H]1C(=O)N[C@@H](C(C)C)C(=O)N(C)CC(=O)N(C)[C@@H](CC(C)C)C(=O)N[C@@H](C(C)C)C(=O)N(C)[C@@H](CC(C)C)C(=O)N[C@@H](C)C(=O)N[C@H](C)C(=O)N(C)[C@@H](CC(C)C)C(=O)N(C)[C@@H](CC(C)C)C(=O)N(C)[C@@H](C(C)C)C(=O)N1C` [VALSPODAR], the pIC50 in the data set on SARS-CoV-2 is less than 4.48. Also, the midpoint of cytotoxicity in “in vitro [2]”, the CC50 at 48 h, lay at 13.4 µM.
In the case of `Nc1c[nH]c(=O)c2cc(-c3ccccc3)sc12`, in the data set on SARS-CoV-2, the pIC50 was 5.28. Besides, in “in vitro [2]”, the CC50 at 48 h is greater than 33 µM.
Take `CC(C)C[C@H](NC(=O)CNC(=O)c1cc(Cl)ccc1Cl)B(O)O` [IXAZOMIB]: the pIC50 in the data set with SARS-CoV-2 is less than 4.48. This compound displayed a CC50 at 48 h in the data set “in vitro [2]” of 2.7 µM.
`CCN1CCN(Cc2ccc(-c3cc4c(N[C@H](C)c5ccccc5)ncnc4[nH]3)cc2)CC1` [AEE-788] gave a pIC50 in the data set with SARS-CoV-2 of 5.40. The CC50 at 48 h in the data set “in vitro [2]” was greater than 33 µM.
Turning to `Cc1c(O)cccc1C(=O)NC(CSc1ccccc1)C(O)CN1CC2CCCCC2CC1C(=O)NC(C)(C)C` (stereo unspecified), the pIC50 in the data set with SARS-CoV-2 was 4.84. Further, the CC50 at 48 h in “in vitro [2]” is greater than 33 µM.
Compound `O=C1OC2(c3ccc(O)cc3Oc3cc(O)ccc32)c2ccccc21` [FLUORESCEIN] gave a pIC50 in the data set with SARS-CoV-2 of 6.17. In “in vitro [2]”, this compound returned a CC50 at 48 h greater than 33 µM.
In turn, `C=CC(=O)N1CCC(Oc2cc3c(Nc4ccc(Cl)c(Cl)c4F)ncnc3cc2OC)CC1` [POZIOTINIB] gave a pIC50 with SARS-CoV-2 of less than 4.48. This compound yielded a CC50 at 48 h in the data set “in vitro [2]” of 11.5 µM.
For the compound `Cc1ncc(NC(=O)c2ccc(CN3CCN(C)CC3)c(C(F)(F)F)c2)cc1Nc1nccc(-c2cccnc2)n1` [FLUMATINIB], the negative-log IC50 (pIC50) in the data set with SARS-CoV-2 is less than 4.48. In “in vitro [2]”, this compound came in with a CC50 at 48 h greater than 33 µM.
The compound `Cc1ccc(Oc2nc3cc(-c4ccc(-c5ccccc5)cc4)c(Cl)cc3[nH]2)cc1C(=O)O` had a pIC50 in the data set with SARS-CoV-2 of less than 4.48. Besides, it took 0.03 µM to reach half-maximal cytotoxicity in “in vitro [2]” (CC50 at 48 h).
For `CC[n+]1c(-c2ccccc2)c2cc(N)ccc2c2ccc(N)cc21` [HOMIDIUM], the pIC50 with SARS-CoV-2 was less than 4.48. Also, in the data set “in vitro [2]”, the CC50 at 48 h is 2.04 µM.
Taken in the same sequence, the figures for `CCN(CC)CCCCNc1ncc2cc(-c3c(Cl)cccc3Cl)c(NC(=O)NC(C)(C)C)nc2n1` were less than 4.48 and 12.7 µM.
